Assay results as given in patent publication US5798336A, “Antimicrobial peptides” (priority 1995, dated 1998).
Where two headings read alike, the source gives them in different places. Where a SMILES comes first, the peptide text is derived from it.

Tests used:
[1] = system: P. aeruginosa ATCC 27853
[2] = system: N. gonorrhoeae strain WS1
[3] = system: S. aureus strain 8325-4; settings: strain 8325-4, 500

| SMILES | Log Kill (500 μg/ml) P. aeruginosa ATCC 27853 ([1]; ATCC 27853, 500) | Log Kill (500 μg/ml) N. gonorrhoeae strain WS1 ([2]; strain WS1, 500) | Log Kill (500 μg/ml) P. aeruginosa ATCC 278533 ([1]; ATCC 27853, 500) | Log Kill (500 μg/ml) N. gonorrhoeae strain WSI ([2]; strain WS1, 500) | Log Kill (500 μg/ml) S. aureus strain 8325-4 [3] | Log Kill (500 μg/ml) P. aeruginosa ATCC 27853 ([1]; Table 6, crude peptides 500 μg/ml, about 10^7 CFU/ml, 1/100 strength HBSS) | Log Kill (500 μg/ml) N. gonorrhoeae strain WS1 ([2]; Table 6, crude peptides 500 μg/ml, 1/100 strength HBSS) |
| --- | --- | --- | --- | --- | --- | --- | --- |
| CC[C@H](C)[C@H](NC(=O)[C@H](CC(N)=O)NC(=O)[C@H](Cc1c[nH]cn1)NC(=O)[C@H](C)NC(=O)CNC(=O)[C@H](CC(C)C)NC(=O)[C@@H](NC(=O)[C@@H](NC(=O)[C@H](CC(N)=O)NC(=O)[C@@H](NC(=O)[C@H](CC(N)=O)NC(=O)[C@H](CO)NC(=O)CNC(=O)[C@H](Cc1c[nH]c2ccccc12)NC(=O)[C@H](CS)NC(=O)[C@H](Cc1c[nH]cn1)NC(=O)[C@H](C)NC(=O)[C@H](C)NC(=O)[C@@H](N)[C@@H](C)O)[C@@H](C)CC)C(C)C)[C@@H](C)O)C(=O)N[C@@H](CCC(N)=O)C(=O)O [CG 41-60] (H-TAAHCWGSNINVTLGAHNIQ-OH) | 0.5 log | -0.09 log | – | – | – | – | – |
| CC[C@H](C)[C@H](NC(=O)[C@H](CCC(N)=O)NC(=O)[C@H](CCCNC(=N)N)NC(=O)[C@H](CCCNC(=N)N)NC(=O)[C@@H]1CCCN1C(=O)[C@H](CC(=O)O)NC(=O)[C@H](Cc1ccc(O)cc1)NC(=O)[C@H](CO)NC(=O)CN)C(=O)N[C@@H](CS)C(=O)N[C@H](C(=O)NCC(=O)N[C@@H](CC(=O)O)C(=O)N[C@@H](CCCNC(=N)N)C(=O)N[C@@H](CCCNC(=N)N)C(=O)N[C@@H](CCC(=O)O)C(=O)N[C@@H](CCCNC(=N)N)C(=O)N[C@@H](CCCCN)C(=O)N[C@@H](C)C(=O)N[C@@H](C)C(=O)O)C(C)C [CG 157-176] (H-GSYDPRRQICVGDRRERKAA-OH) | 1.02 log | -0.18 log | – | – | – | – | – |
| CC(C)C[C@H](NC(=O)CNC(=O)[C@H](CCC(=O)O)NC(=O)[C@H](CCC(N)=O)NC(=O)[C@H](C)NC(=O)[C@H](CCCNC(=N)N)NC(=O)[C@@H]1CCCN1C(=O)[C@H](CC(C)C)NC(=O)[C@H](C)NC(=O)[C@@H](NC(=O)[C@@H]1CCCN1C(=O)[C@H](CC(N)=O)NC(=O)[C@@H](NC(=O)[C@H](CC(N)=O)NC(=O)[C@H](CCCNC(=N)N)NC(=O)[C@H](CC(N)=O)NC(=O)[C@H](CCCNC(=N)N)NC(=O)[C@H](CCCNC(=N)N)NC(=O)[C@@H](NC(=O)[C@@H](N)CCCNC(=N)N)C(C)C)C(C)C)C(C)C)C(=O)O [CG 97-116] (H-RVRRNRNVNPVALPRAQEGL-OH) | 5.93 log | -0.21 log | 0.22 log | 0.2 log | -0.1 log | – | – |
| CC(C)C[C@H](NC(=O)[C@@H](NC(=O)CNC(=O)[C@@H]1CCCN1C(=O)[C@@H](N)CCCNC(=N)N)[C@@H](C)O)C(=O)N[C@@H](CS)C(=O)N[C@H](C(=O)N[C@H](C(=O)N[C@@H](C)C(=O)NCC(=O)N[C@@H](Cc1c[nH]c2ccccc12)C(=O)NCC(=O)N[C@@H](CCCNC(=N)N)C(=O)O)C(C)C)[C@@H](C)O [CG 117-129] (H-RPGTLCTVAGWGR-OH) | 0.86 log | 0.05 log | – | – | 0 log | – | – |
| CC[C@H](C)[C@H](NC(=O)[C@H](CCCNC(=N)N)NC(=O)[C@H](CC(C)C)NC(=O)[C@H](CS)NC(=O)[C@H](CCC(N)=O)NC(=O)[C@H](CCCNC(=N)N)NC(=O)[C@H](CC(=O)O)NC(=O)[C@H](CCCNC(=N)N)NC(=O)[C@H](CCC(N)=O)NC(=O)[C@@H](NC(=O)[C@H](CCCNC(=N)N)NC(=O)[C@H](CC(C)C)NC(=O)[C@H](CCC(N)=O)NC(=O)[C@@H](NC(=O)[C@H](CCC(=O)O)NC(=O)[C@H](CCCNC(=N)N)NC(=O)[C@H](CC(C)C)NC(=O)[C@@H](NC(=O)[C@@H](N)CC(=O)O)[C@@H](C)O)C(C)C)C(C)C)C(=O)N[C@@H](Cc1ccccc1)C(=O)O [CG 137-156] (H-DTLREVQLRVQRDRQCLRIF-OH) | – | – | – | – | – | 0.01 log | 0.43 log |
| CC[C@H](C)[C@H](NC(=O)[C@H](CC(=O)O)NC(=O)[C@H](CC(N)=O)NC(=O)[C@H](CCC(N)=O)NC(=O)[C@@H](NC(=O)[C@@H](NC(=O)[C@H](CCCNC(=N)N)NC(=O)[C@H](CCC(N)=O)NC(=O)[C@H](CC(N)=O)NC(=O)[C@H](Cc1ccc(O)cc1)NC(=O)[C@H](CCC(N)=O)NC(=O)[C@@H]1CCCN1C(=O)[C@@H](N)Cc1c[nH]cn1)[C@@H](C)O)[C@@H](C)CC)C(=O)N[C@@H](CCSC)C(=O)N[C@@H](CC(C)C)C(=O)N[C@@H](CC(C)C)C(=O)N[C@@H](CCC(N)=O)C(=O)N[C@@H](CC(C)C)C(=O)N[C@@H](CO)C(=O)N[C@@H](CCCNC(=N)N)C(=O)O [CG 77-96] (H-HPQYNQRTIQNDIMLLQLSR-OH) | 0.06 log | 0.24 log | – | – | – | – | – |
| CC[C@H](C)[C@H](NC(=O)CNC(=O)[C@H](Cc1c[nH]cn1)NC(=O)[C@H](C)NC(=O)[C@@H](NC(=O)[C@H](CC(N)=O)NC(=O)[C@H](CC(N)=O)NC(=O)[C@H](CS)NC(=O)[C@H](CC(C)C)NC(=O)[C@H](CC(C)C)NC(=O)[C@@H]1CCCN1C(=O)CNC(=O)CNC(=O)[C@H](CO)NC(=O)[C@H](CC(=O)O)NC(=O)CNC(=O)[C@H](CCCCN)NC(=O)[C@@H](N)Cc1ccccc1)C(C)C)C(=O)N[C@H](C(=O)N[C@@H](CO)C(=O)N[C@@H](Cc1ccc(O)cc1)C(=O)O)C(C)C [CG 177-197] (H-FKGDSGGPLLCNNVAHGIVSY-OH) | -0.79 log | 0.68 log | – | – | – | – | – |
| CSCC[C@H](NC(=O)[C@H](CO)NC(=O)[C@@H](NC(=O)[C@H](CCCNC(=N)N)NC(=O)CNC(=O)[C@H](Cc1c[nH]c2ccccc12)NC(=O)CNC(=O)[C@H](C)NC(=O)[C@@H](NC(=O)[C@@H](NC(=O)[C@H](CS)NC(=O)[C@H](CC(C)C)NC(=O)[C@@H](NC(=O)CNC(=O)[C@@H]1CCCN1C(=O)[C@@H](N)CCCNC(=N)N)[C@@H](C)O)[C@@H](C)O)C(C)C)C(C)C)C(=O)N[C@@H](CCCNC(=N)N)C(=O)N[C@@H](CCCNC(=N)N)C(=O)NCC(=O)N[C@H](C(=O)O)[C@@H](C)O [CG 117-136] (H-RPGTLCTVAGWGRVSMRRGT-OH) | 5.8 log | – | 5.88 log | – | 5.34 log | – | – |
| CSCC[C@H](NC(=O)[C@H](CO)NC(=O)[C@@H](NC(=O)[C@H](CCCNC(=N)N)NC(=O)CNC(=O)[C@@H](N)Cc1c[nH]c2ccccc12)C(C)C)C(=O)N[C@@H](CCCNC(=N)N)C(=O)N[C@@H](CCCNC(=N)N)C(=O)NCC(=O)N[C@H](C(=O)O)[C@@H](C)O [CG 127-136] (H-WGRVSMRRGT-OH) | 0.27 log | 3.20 log | – | – | 0 log | – | – |
| CC[C@H](C)[C@H](NC(=O)[C@H](C)NC(=O)[C@H](CCCNC(=N)N)NC(=O)[C@H](CCCNC(=N)N)NC(=O)[C@H](C)NC(=O)[C@@H](NC(=O)[C@@H](NC(=O)[C@H](Cc1c[nH]cn1)NC(=O)[C@H](CCC(N)=O)NC(=O)[C@H](CCC(N)=O)NC(=O)[C@@H](NC(=O)[C@H](CC(N)=O)NC(=O)[C@H](CCC(=O)O)NC(=O)[C@H](CCCNC(=N)N)NC(=O)[C@@H](N)CCCNC(=N)N)[C@@H](C)O)[C@@H](C)CC)[C@@H](C)O)C(=O)N[C@@H](CCCNC(=N)N)C(=O)N[C@@H](Cc1c[nH]cn1)C(=O)N1CCC[C@H]1C(=O)N[C@@H](CCC(N)=O)C(=O)N[C@@H](Cc1ccc(O)cc1)C(=O)O [CG 61-80] (H-RRENTQQHITARRAIRHPQY-OH) | – | 0 log | 5.15 log | – | 0.58 log | – | – |
| CC(C)C[C@H](NC(=O)[C@@H](NC(=O)[C@H](Cc1ccccc1)NC(=O)[C@H](CC(=O)O)NC(=O)[C@H](CCC(=O)O)NC(=O)[C@H](CCCNC(=N)N)NC(=O)[C@@H](NC(=O)[C@H](CC(C)C)NC(=O)[C@H](Cc1ccccc1)NC(=O)CNC(=O)CNC(=O)[C@H](CS)NC(=O)[C@H](CCCNC(=N)N)NC(=O)[C@H](CO)NC(=O)[C@H](CCC(N)=O)NC(=O)CNC(=O)[C@H](C)NC(=O)[C@@H]1CCCN1C(=O)[C@H](CO)NC(=O)[C@@H](N)CCC(N)=O)C(C)C)C(C)C)C(=O)O [CG 21-40] (H-QSPAGQSRCGGFLVREDFVL-OH) | -0.034 log | 0.05 log | – | – | – | – | – |
| CSCC[C@H](NC(=O)[C@H](CO)NC(=O)[C@@H](NC(=O)[C@H](CCCNC(=N)N)NC(=O)CNC(=O)[C@H](Cc1c[nH]c2ccccc12)NC(=O)CNC(=O)[C@H](C)NC(=O)[C@@H](NC(=O)[C@@H](NC(=O)[C@@H](N)CS)[C@@H](C)O)C(C)C)C(C)C)C(=O)N[C@@H](CCCNC(=N)N)C(=O)N[C@@H](CCCNC(=N)N)C(=O)NCC(=O)N[C@H](C(=O)O)[C@@H](C)O [CG 122-136] (H-CTVAGWGRVSMRRGT-OH) | 4.75 log | 4.18 log | – | – | 0 log | – | – |
| CC[C@H](C)[C@H](N)C(=O)N[C@H](C(=O)NCC(=O)NCC(=O)N[C@@H](CCCNC(=N)N)C(=O)N[C@@H](CCC(=O)O)C(=O)N[C@@H](CO)C(=O)N[C@@H](CCCNC(=N)N)C(=O)N1CCC[C@H]1C(=O)N[C@@H](Cc1c[nH]cn1)C(=O)N[C@@H](CO)C(=O)N[C@@H](CCCNC(=N)N)C(=O)N1CCC[C@H]1C(=O)N[C@@H](Cc1ccc(O)cc1)C(=O)N[C@@H](CCSC)C(=O)N[C@@H](C)C(=O)N[C@@H](Cc1ccc(O)cc1)C(=O)N[C@@H](CC(C)C)C(=O)N[C@@H](CCC(N)=O)C(=O)N[C@H](C(=O)O)[C@@H](C)CC)[C@@H](C)CC [CG 1-20] (H-IIGGRESRPHSRPYMAYLQI-OH) | 5.507 log | 2.57 log | 1.0 log | 0.43 log | 0.3 log | – | – |
